Measurements as given in patent publication US20210340120A1, “PESTICIDALLY ACTIVE AZOLE-AMIDE COMPOUNDS” (SYNGENTA PARTICIPATIONS AG, priority 2018, published 2021).

How the values were obtained:
Format in all cases: in vivo
Diabrotica balteata = experiment: Example B1: Diabrotica balteata (corn root worm), maize sprouts sprayed, L2 larvae; conditions: 96 h, application rate 200 ppm, 4 days after infestation, read-out: control in at least one of the two categories (mortality or growth inhibition)
Method: Maize sprouts placed onto an agar layer in 24-well microtiter plates were treated with aqueous test solutions prepared from 10′000 ppm DMSO stock solutions by spraying. After drying, the plates were infested with L2 larvae (6 to 10 per well). The samples were assessed for mortality and growth inhibition in comparison to untreated samples 4 days after infestation.

Euschistus heros = experiment: Example B2: Euschistus heros (neotropical brown stink bug), soybean leaves sprayed, N2 nymphs; conditions: 120 h, application rate 200 ppm, 5 days after infestation, read-out: control in at least one of the two categories (mortality or growth inhibition)
Method: Soybean leaves on agar in 24-well microtiter plates were sprayed with aqueous test solutions prepared from 10′000 ppm DMSO stock solutions. After drying the leaves were infested with N2 nymphs. The samples were assessed for mortality and growth inhibition in comparison to untreated samples 5 days after infestation.

Plutella xylostella = experiment: Example B3: Plutella xylostella (diamond back moth), artificial diet, eggs; conditions: 192 h, application rate 200 ppm, 8 days after infestation, read-out: control in at least one of the two categories (mortality or growth inhibition)
Method: 24-well microtiter plates with artificial diet were treated with aqueous test solutions prepared from 10′000 ppm DMSO stock solutions by pipetting. After drying, Plutella eggs were pipetted through a plastic stencil onto a gel blotting paper and the plate was closed with it. The samples were assessed for mortality and growth inhibition in comparison to untreated samples 8 days after infestation. The following compounds gave an effect of at least 80% control in at least one of the two categories (mortality or growth inhibition) at an application rate of 200 ppm: P1, P2, P3, P4, P5, P6

Spodoptera littoralis = experiment: Example B6: Spodoptera littoralis (Egyptian cotton leaf worm), cotton leaf discs, L1 larvae; conditions: foliar, 72 h, application rate 200 ppm, 3 days after infestation, read-out: control in at least one of the categories (mortality, anti-feedant effect, or growth inhibition)
Method: Cotton leaf discs were placed onto agar in 24-well microtiter plates and sprayed with aqueous test solutions prepared from 10′000 ppm DMSO stock solutions. After drying the leaf discs were infested with five L1 larvae. The samples were assessed for mortality, anti-feeding effect, and growth inhibition in comparison to untreated samples 3 days after infestation. Control of Spodoptera littoralis by a test sample is given when at least one of the categories mortality, anti-feedant effect, and growth inhibition is higher than the untreated sample.

Chilo suppressalis = experiment: Example B9: Chilo suppressalis (striped rice stemborer), artificial diet, L2 larvae; conditions: 144 h, application rate 200 ppm, 6 days after infestation, read-out: control in at least one of the three categories (mortality, anti-feedant effect or growth inhibition)
Method: 24-well microtiter plates with artificial diet were treated with aqueous test solutions prepared from 10′000 ppm DMSO stock solutions by pipetting. After drying, the plates were infested with L2 larvae (6-8 per well). The samples were assessed for mortality, anti-feeding effect, and growth inhibition in comparison to untreated samples 6 days after infestation. Control of Chilo suppressalis by a test sample is given when at least one of the categories mortality, anti-feedant effect, and growth inhibition is higher than the untreated sample.

Myzus persicae [1] = experiment: Example B5: Myzus persicae (green peach aphid) intrinsic activity, sucrose solution, 24-well; conditions: 120 h, test rate 12 ppm, 5 days after infestation
Method: Test compounds prepared from 10′000 ppm DMSO stock solutions were applied by pipette into 24-well microtiter plates and mixed with sucrose solution. The plates were closed with a stretched Parafilm. A plastic stencil with 24 holes was placed onto the plate and infested pea seedlings were placed directly on the Parafilm. The infested plate was closed with a gel blotting paper and another plastic stencil and then turned upside down. The samples were assessed for mortality 5 days after infestation.

Tetranychus urticae = experiment: Example B7: Tetranychus urticae (two-spotted spider mite) feeding/contact activity, bean leaf discs; conditions: foliar, 192 h
Method: Bean leaf discs on agar in 24-well microtiter plates were sprayed with aqueous test solutions prepared from 10′000 ppm DMSO stock solutions. After drying the leaf discs were infested with a mite population of mixed ages. The samples were assessed for mortality on mixed population (mobile stages) 8 days after infestation.

Thrips tabaci = experiment: Example B8: Thrips tabaci (onion thrips) feeding/contact activity, sunflower leaf discs; conditions: foliar, 144 h, application rate 200 ppm, 6 days after infestation, mixed ages
Method: Sunflower leaf discs were placed on agar in 24-well microtiter plates and sprayed with aqueous test solutions prepared from 10′000 ppm DMSO stock solutions. After drying the leaf discs were infested with a thrips population of mixed ages. The samples were assessed for mortality 6 days after infestation.

Myzus persicae [2] = experiment: Example B10: Myzus persicae (green peach aphid), sucrose solution, 96-well; conditions: 120 h, application rate 50 ppm, 5 days after infestation
Method: Test compounds prepared from 10′000 ppm DMSO stock solutions were applied by a liquid handling robot into 96-well microtiter plates and mixed with a sucrose solution. Parafilm was stretched over the 96-well microtiter plate and a plastic stencil with 96 holes was placed onto the plate. Aphids were sieved into the wells directly onto the Parafilm. The infested plates were closed with a gel blotting card and a second plastic stencil and then turned upside down. The samples were assessed for mortality 5 days after infestation.

Myzus persicae [3] = experiment: Example B4: Myzus persicae (green peach aphid) feeding/contact activity, sunflower leaf discs; conditions: foliar, 144 h, application rate 200 ppm, 6 days after infestation, mixed ages
Method: Sunflower leaf discs were placed onto agar in a 24-well microtiter plate and sprayed with aqueous test solutions prepared from 10′000 ppm DMSO stock solutions. After drying, the leaf discs were infested with an aphid population of mixed ages. The samples were assessed for mortality 6 days after infestation.

CC(NC(=O)c1cc(C(F)(F)F)cc(C(F)(F)F)c1)c1ncnn1-c1ccc(Cl)cn1 (stereo not shown) [Compound P1, N-[1-[2-(5-chloro-2-pyridyl)-1,2,4-triazol-3-yl]ethyl]-3,5-bis(trifluoromethyl)benzamide]
≥ 80%: percent control (mortality or growth inhibition) at 200 ppm (Diabrotica balteata) | percent control (mortality or growth inhibition) at 200 ppm (Euschistus heros) | percent control (mortality or growth inhibition) at 200 ppm (Plutella xylostella) | percent control (mortality, anti-feedant effect or growth inhibition) at 200 ppm (Spodoptera littoralis) | percent control (mortality, anti-feedant effect or growth inhibition) at 200 ppm (Chilo suppressalis)

CC(c1ncnn1-c1ncccc1F)N(CC1CC1)C(=O)c1cc(C(F)(F)F)cc(C(F)(F)F)c1 (stereo not shown) [Compound P2, N-(cyclopropylmethyl)-N-[1-[2-(3-fluoro-2-pyridyl)-1,2,4-triazol-3-yl]ethyl]-3,5-bis(trifluoromethyl)benzamide]
≥ 80%: percent control (mortality or growth inhibition) at 200 ppm (Diabrotica balteata) | percent control (mortality or growth inhibition) at 200 ppm (Plutella xylostella) | percent control (mortality, anti-feedant effect or growth inhibition) at 200 ppm (Spodoptera littoralis)

CC(NC(=O)c1cc(C(F)(F)F)cc(C(F)(F)F)c1)c1ncnn1-c1ccc(F)cn1 (stereo not shown) [Compound P3, N-[1-[2-(5-fluoro-2-pyridyl)-1,2,4-triazol-3-yl]ethyl]-3,5-bis(trifluoromethyl)benzamide]
≥ 80%: percent control (mortality or growth inhibition) at 200 ppm (Diabrotica balteata) | percent control (mortality or growth inhibition) at 200 ppm (Euschistus heros) | percent control (mortality or growth inhibition) at 200 ppm (Plutella xylostella) | mortality at 12 ppm (Myzus persicae [1]) | percent control (mortality, anti-feedant effect or growth inhibition) at 200 ppm (Spodoptera littoralis) | mortality at 200 ppm (Tetranychus urticae)

CC(NC(=O)c1cc(C(F)(F)F)cc(C(F)(F)F)c1)c1ncnn1-c1ncccc1F (stereo not shown) [Compound P4, N-[1-[2-(3-fluoro-2-pyridyl)-1,2,4-triazol-3-yl]ethyl]-3,5-bis(trifluoromethyl)benzamide]
≥ 80%: percent control (mortality or growth inhibition) at 200 ppm (Diabrotica balteata) | percent control (mortality or growth inhibition) at 200 ppm (Euschistus heros) | percent control (mortality or growth inhibition) at 200 ppm (Plutella xylostella) | percent control (mortality, anti-feedant effect or growth inhibition) at 200 ppm (Spodoptera littoralis) | mortality at 200 ppm (Thrips tabaci) | mortality at 50 ppm (Myzus persicae [2])

CC(c1ncnn1-c1ccc(F)cn1)N(CC1CC1)C(=O)c1cc(C(F)(F)F)cc(C(F)(F)F)c1 (stereo not shown) [Compound P5, N-(cyclopropylmethyl)-N-[1-[2-(5-fluoro-2-pyridyl)-1,2,4-triazol-3-yl]ethyl]-3,5-bis(trifluoromethyl)benzamide]
≥ 80%: percent control (mortality or growth inhibition) at 200 ppm (Diabrotica balteata) | percent control (mortality or growth inhibition) at 200 ppm (Euschistus heros) | percent control (mortality or growth inhibition) at 200 ppm (Plutella xylostella) | mortality at 200 ppm (Myzus persicae [3]) | percent control (mortality, anti-feedant effect or growth inhibition) at 200 ppm (Spodoptera littoralis) | mortality at 200 ppm (Tetranychus urticae)

CC(NC(=O)c1cc(C(F)(F)F)cc(C(F)(F)F)c1)c1ncnn1-c1cccc(F)n1 (stereo not shown) [Compound P6, N-[1-[2-(6-fluoro-2-pyridyl)-1,2,4-triazol-3-yl]ethyl]-3,5-bis(trifluoromethyl)benzamide]
≥ 80%: percent control (mortality or growth inhibition) at 200 ppm (Plutella xylostella) | percent control (mortality, anti-feedant effect or growth inhibition) at 200 ppm (Chilo suppressalis)
